Results from patent US20240252546A1, “NEURITE OUTGROWTH PROMOTION KIT AND USE THEREFOR” (KEIO UNIVERSITY, priority 2021, published 2024).

Experiments:
phosphorylated p38 = experiment: Effect of RK-682 on phosphorylation of p38 (Experimental Example 9); assay type: cell-based, human; details: 201B7 neurospheres; 20 μM RK-682, 24 hours; vs control
Experimental: (§1) Neurospheres derived from 201B7 cells, which are cells of a human iPS cell line, were prepared in the same manner as in Experimental Example 1. Subsequently, the neurospheres were cultured for 24 hours in the presence of RK-682 at a final concentration of 20 μM. In addition, as a control, a group to which RK-682 was not added was also prepared. Subsequently, each neurosphere was fixed with paraformaldehyde and subjected to immunostaining of each of the phosphorylated p38 and the phosphorylated CDC25B.

[1] = system: nerve cells induced from neurospheres derived from 201B7 cells; experiment: Effect of RK-682 on neurite outgrowth (Experimental Example 10); assay type: cell-based, human; details: 201B7 neurospheres; 20 μM RK-682, 24 hours, differentiated 14 days; vs control
Experimental: as §1, with “prepared.” for “prepared. Subsequently, each neurosphere was fixed with paraformaldehyde and subjected to immunostaining of each of the phosphorylated p38 and the phosphorylated CDC25B.”
(§2) Subsequently, each neurosphere was seeded on a 48-well chamber slide (IWAKI & CO., LTD.) coated with poly-L-ornithine/fibronectin, cultured for 14 days in a culture medium containing no growth factor at 37° C. in an environment of 95% air and 5% CO2, and differentiated into nerve cells.
Subsequently, each of the obtained nerve cells was fixed with 4% paraformaldehyde in 0.1 M PBS, and each of βIII-tubulin which is a nerve cell marker, and the Tau protein which is frequently distributed in axons, was immunostained, and the length of the neurite was measured.

phosphorylated CDC25B [2] = experiment: Effect of RK-682 on phosphorylation of CDC25B (Experimental Example 9); assay type: cell-based, human; details: 201B7 neurospheres; 20 μM RK-682, 24 hours; vs control
Experimental: as §1

CDC25B = molecular target: T1, CDC25B (Homo sapiens, UniProt P30305); details: "it is said"; cited from earlier work
T1 sequence (P30305 1-580): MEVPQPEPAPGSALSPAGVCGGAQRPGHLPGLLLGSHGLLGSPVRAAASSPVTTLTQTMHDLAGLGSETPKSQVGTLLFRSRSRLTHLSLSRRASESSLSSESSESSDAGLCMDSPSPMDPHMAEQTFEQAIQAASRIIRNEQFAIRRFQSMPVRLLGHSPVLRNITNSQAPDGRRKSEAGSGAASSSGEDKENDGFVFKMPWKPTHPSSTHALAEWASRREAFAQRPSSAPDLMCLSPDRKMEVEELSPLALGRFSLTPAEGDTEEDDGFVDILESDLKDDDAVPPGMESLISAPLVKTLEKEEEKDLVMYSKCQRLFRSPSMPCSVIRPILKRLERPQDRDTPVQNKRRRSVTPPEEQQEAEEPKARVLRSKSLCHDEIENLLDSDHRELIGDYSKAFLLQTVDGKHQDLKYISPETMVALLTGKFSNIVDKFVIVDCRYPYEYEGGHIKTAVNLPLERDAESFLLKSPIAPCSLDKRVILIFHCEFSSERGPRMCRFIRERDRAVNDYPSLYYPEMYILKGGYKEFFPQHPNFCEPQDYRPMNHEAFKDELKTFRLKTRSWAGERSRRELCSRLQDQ

phosphorylated CDC25B [3] = experiment: Effect of addition of SB203580 on phosphorylation of CDC25B (Experimental Example 6); assay type: cell-based, human
Experimental: (§3) Neurospheres derived from 201B7 cells, which are cells of a human iPS cell line, were prepared in the same manner as in Experimental Example 1. Subsequently, each neurosphere was cultured for 24 hours in the presence of each of DAPT and Compound 34. DAPT and Compound 34 were used at the same concentrations as in Experimental Example 1. In addition, in this case, SB203580 (CAS number: 152121-47-6), which is a p38 inhibitor, was added to the culture medium at a final concentration of 20 μM. In addition, a group to which SB203580 had not been added was also prepared as a control.
Subsequently, each neurosphere was fixed with paraformaldehyde and subjected to immunostaining of phosphorylated CDC25B.
In FIG. 12(c), “DAPT” indicates it is the result obtained from the control into which the DAPT treatment has been carried out in the absence of SB203580, and “DAPT+SB203580” indicates it is the result obtained by carrying out the DAPT treatment in the presence of SB203580.

[4] = system: nerve cells induced from neurospheres derived from 201B7 cells; experiment: Effect of addition of SB203580 on neurite outgrowth (Experimental Example 7); assay type: cell-based, human; details: differentiated 14 days
Experimental: as §3, §2
Subsequently, each of the obtained nerve cells was fixed with 4% paraformaldehyde in 0.1 M PBS, and each of βIII-tubulin which is a nerve cell marker, and the Tau protein which is frequently distributed in axons, was immunostained, and the length of the neurite was measured. […]

[5] = 20 μM SB203580 during Compound 34 treatment (1 μM, 24 hours), vs without SB203580
[6] = 20 μM SB203580 during DAPT treatment (10 μM, 24 hours), vs DAPT without SB203580

Structure (SMILES) | amount of phosphorylated p38 in the neurosphere (phosphorylated p38) | neurite outgrowth (neurite length), βIII-tubulin immunostaining [1] | neurite outgrowth, Tau protein immunostaining [1] | amount of phosphorylated CDC25B in the neurosphere (phosphorylated CDC25B [2]) | dephosphorylation inhibitory effect on CDC25B (CDC25B) | increase in the amount of phosphorylated CDC25B in the neurosphere (phosphorylated CDC25B [3]; [5]) | increase in the amount of phosphorylated CDC25B in the neurosphere (phosphorylated CDC25B [3]; [6]) | neurite outgrowth (neurite length) [4, 5] | neurite outgrowth (neurite length) [4, 6]
CCCCCCCCCCCCCCCC(=O)C1=C(O)[C@@H](CO)OC1=O [RK-682] | significantly increased | significantly promoted | significantly promoted | significantly increased | does not have a dephosphorylation inhibitory effect |  |  |  | 
C[S+]([O-])c1ccc(-c2nc(-c3ccncc3)c(-c3ccc(F)cc3)[nH]2)cc1 (stereo not drawn) [SB203580] |  |  |  |  |  | significantly suppressed | significantly suppressed | significantly suppressed | significantly suppressed
